Reference: patent US10168342B2, “Lipid probes and uses thereof” (THE SCRIPPS RESEARCH INSTITUTE, priority 2015, dated 2019)

Assays:
[1] = molecular target: T1, AEA-DA-modified peptides in Neuro2a cells (Mus musculus, UniProt Q02819); experiment: isoTOP-ABPP mapping of AEA-DA-modified peptides in Neuro2a cells; type: cell-based; conditions: for Times observed: probe 100 μM, 12 replicates
T1 construct: endogenous in cells; host or cells: Neuro2a
T1 sequence (Q02819 26-459): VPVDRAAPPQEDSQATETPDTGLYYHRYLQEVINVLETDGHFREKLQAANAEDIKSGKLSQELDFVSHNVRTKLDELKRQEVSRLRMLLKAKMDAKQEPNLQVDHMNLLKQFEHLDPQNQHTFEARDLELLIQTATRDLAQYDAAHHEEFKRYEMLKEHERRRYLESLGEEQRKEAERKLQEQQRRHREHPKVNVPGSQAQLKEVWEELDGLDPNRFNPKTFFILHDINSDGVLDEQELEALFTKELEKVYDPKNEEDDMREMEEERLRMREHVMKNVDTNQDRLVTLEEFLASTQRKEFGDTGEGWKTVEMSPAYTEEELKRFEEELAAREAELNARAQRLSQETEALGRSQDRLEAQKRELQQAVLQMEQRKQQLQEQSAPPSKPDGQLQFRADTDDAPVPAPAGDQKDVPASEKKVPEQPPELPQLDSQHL
Experimental: Experiments were performed as described above using the AEA-DA probe (100 μM) in 3.0 mL of DMEM (serum-free) and Neuro2A cells without (twelve replicates; ten biological; two technical). For the ligand competition study, cells were treated with the AEA-DA probe (50 μM) and DMSO or MJN228 (50 μM) treatment. Cells were harvested and processed as described above. Whole cell lysates (500 μL at 1.5 mg/mL) were processed for MS analysis using the previously described isoTOPABPP protocol (Speers and Cravatt, 2005). In brief, for global mapping of AEA-DA-modified peptides, proteomes were split into two fractions, which were subjected to click chemistry conditions with either light or heavy isotopically labeled TEV-tags. For the […] competition study, proteomes were subjected to click chemistry conditions with either light (DMSO) or heavy (MJN228-treated) TEV-tags. Light and heavy-tagged proteomes in each experiment were then combined, and, following enrichment of probe-labeled targets using streptavidin beads, proteins were digested on-bead with trypsin and remaining immobilized peptides released with a subsequent TEV protease digestion. The resulting probe-modified peptides were collected for MS analysis, which was performed as described above with differences in the salt bumps applied in the chromatographic gradients which were 0%, 30%, 60%, 90% and 100% NH4OAc (500 mM). The protein identification searches of the MS data were performed using the same software packages described above with the following changes applied to identify the peptides modified with AEA-DA and the cleaved TEV tag. All amino acids were considered as possible residues for modification. To facilitate the computational searches, sets of up to 3 amino acids were searched using ProLuCID and filtered with DTASelect as described above. The mass of the modification used to search for probe-modified peptides was +727.4745 m/z for the probe plus the light TEV-tag and +733.4831 m/z for the heavy counterpart. […] For global mapping experiments, AEA-DA-modified peptides were expected to show a ratio of “heavy” and “light” signals of ˜1.0 (0.5<ratio<2.0) and were required to have been detected in at least two of the twelve replicate experiments.
In some embodiments, the ligands are tested for their interaction to NUCB1 in cells. […] MJN228 inhibited lipid probe binding to NUCB1 at concentrations as low as 10 μM, with near-maximal inhibition observed at ˜25 μM (FIG. 16A). […] The site of arachidonoyl probe (and MJN228) binding to NUCB1 was mapped in cells, which was accomplished by treating Neuro2A cells with the AEA-DA probe (50 μM) in the presence of DMSO or MJN228 (50 μM), followed by UV irradiation, CuAAC conjugation of AEA-DA-labeled proteins to isotopically light (DMSO-treated cells) and heavy (MJN228-treated cells) azide-biotin tags featuring a TEV protease-cleavable linker, and LCMS/MS analysis using a previously described platform, termed isoTOP-ABPP, for mapping probe-modified peptides in proteomes (Speers and Cravatt, 2005). A AEA-DA labeled peptide was identified for NUCB1 (aa 53-68) in DMSO-treated cells and the signals for this peptide were substantially (>5-fold) reduced in MJN228-treated cells (FIG. 15C). This AEA-DA labeling site was confirmed using recombinant, purified hNUCB1 and tandem MS analysis which narrowed down the site of probe modification to His67 (FIGS. 16B and 16C).

[2] = molecular target: T2, endogenous FAAH in Neuro2a lysates (Mus musculus, UniProt O08914); experiment: FAAH activity by AEA hydrolysis in Neuro2a lysates; type: biochemical; conditions: for IC50: read-out: IC50 against endogenous FAAH in Neuro2a lysates; for inhibition of FAAH activity in Neuro2a lysates: up to 250 μM
T2 construct: endogenous in cells; host or cells: Neuro2a membrane fraction
T2 sequence (O08914 1-579): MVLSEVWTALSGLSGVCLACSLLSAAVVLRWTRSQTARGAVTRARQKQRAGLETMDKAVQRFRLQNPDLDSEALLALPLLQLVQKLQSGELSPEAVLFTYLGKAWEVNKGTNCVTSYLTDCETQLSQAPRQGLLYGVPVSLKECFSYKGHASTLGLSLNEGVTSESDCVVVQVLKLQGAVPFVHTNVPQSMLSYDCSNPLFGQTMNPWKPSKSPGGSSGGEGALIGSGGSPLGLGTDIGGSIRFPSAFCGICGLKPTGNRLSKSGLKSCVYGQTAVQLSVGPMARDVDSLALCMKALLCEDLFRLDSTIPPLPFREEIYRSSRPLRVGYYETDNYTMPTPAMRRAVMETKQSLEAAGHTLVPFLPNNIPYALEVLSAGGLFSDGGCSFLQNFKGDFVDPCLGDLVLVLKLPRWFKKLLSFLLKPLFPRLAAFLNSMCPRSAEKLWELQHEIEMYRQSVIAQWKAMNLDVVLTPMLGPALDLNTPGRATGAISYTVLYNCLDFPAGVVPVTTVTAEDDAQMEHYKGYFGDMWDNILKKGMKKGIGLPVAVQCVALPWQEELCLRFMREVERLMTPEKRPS
Experimental: FAAH activity was measured by AEA hydrolysis: The membrane fraction of Neuro2a lysates (200 μL, 2.0 mg/mL) was incubated with DMSO or the test compound (1.0-250 μM) at 37° C. After 15 min, AEA-d8 (25 μM) was added and the samples were incubated for an additional 30 min and then quenched by the addition of two volumes of CHCl3:MeOH (2:1) containing pentadecanoic acid (PDA) (1.0 nmol) as an internal standard. After centrifuging (2,000×g, 5 min, 4° C.) to separate the organic and aqueous layers, the lower organic layer was transferred to a clean vial and analyzed by LC/MS as previously described. (Long et al., 2009) Pure humanized rat FAAH (Mileni et al., 2008) (5.0 ng/μL) was assayed in the same manner. Product levels were quantified by determining peak areas in relation to PDA.

SMILES | Times observed ([1]; AEA-DA-modified peptide NUCB1 Q02819 53-69, SEQ ID NO 71) | Times observed ([1]; AEA-DA-modified peptide NUCB1 Q02819 246-275, SEQ ID NO 70) | IC50 [2] | inhibition of FAAH activity in Neuro2a lysates [2] | reduction of signals of AEA-DA labeled NUCB1 peptide (aa 53-68) ([1]; Neuro2A cells, AEA-DA 50 μM, MJN228 50 μM)
C#CCCCC1(CC/C=C\C/C=C\C/C=C\CCCC(=O)NCCO)N=N1 [AEA-DA, (5Z,8Z,11Z)-N-(2-hydroxyethyl)-14-(3-(pent-4-yn-1-yl)-3H-diazirin-3-yl)tetradeca-5,8,11-trienamide] | 11 | 4 | – | – | –
CN1CCN(C(=O)c2c(-c3ccccc3)c3cc([N+](=O)[O-])ccc3n2C)CC1 [KML110, (1-Methyl-5-nitro-3-phenyl-1H-indol-2-yl)(4-methylpiperazin-1-yl)methanone] | – | – | > 100 µM | minimal inhibition | –
CN1CCN(C(=O)c2[nH]c3ccc([N+](=O)[O-])cc3c2-c2ccccc2)CC1 [MJN228, (4-Methylpiperazin-1-yl)(5-nitro-3-phenyl-1H-indol-2-yl)methanone] | – | – | > 100 µM | minimal inhibition | > 5 fold
